Reference: patent publication US20220340975A1, “METHOD OF TREATMENT AND PRONOSTIC OF ACUTE MYELOID LEUKEMIA” (INSERM (Institute National de la Santé et de la Recherche …, priority 2019, published 2022)

Assays:
[1] = tested on: NPM1mut AML patient-derived xenograft (H3K27me3HIST1high / H3K27me3HIST1low); experiment: Patient-derived xenograft (PDX) treated with Ara-C; type: in vivo, mice; conditions: for Percentage of leukemic initiating cells (LIC) in BM: 2-round ARAC treated versus untreated
Protocol: FIG. 4: Detection of leukemic initiating cells after ARAC treatment. (A) H3K27me3HIST1^high and H3K27me3HIST1^low AML secondary transplants were injected in immunocompromised mice (NSG). At disease detection, mice were treated with a first round of ARAC (T1). Blasts in the peripheral blood were followed and a second ARAC treatment (T2) was administrated. (B) Frequency of leukemic initiating cells were analyzed in the BM of the transplanted mice. Percentages are calculated in relation to CD45 and CD33 positive cells detected.
We determined the response to chemotherapy according to H3K27me3 status. This was tested in vivo using patient-derived xenograft (PDX) treated with chemotherapeutic drugs (Ara-C). We used secondary transplantation from 1 H3K27me3HIST1low and 2 H3K27me3HIST1high NPM1mut AML patients. Experimental groups of 6 mice/groups of H3K27me3 HIST1high versus H3K27me3 HIST1low were studied. Mice were treated for one week and progression of leukemia was evaluated by counting hCD45+ cells in blood and after euthanasia in bone marrow. Mouse maintenance and experimental procedures were performed in accordance with protocols approved and compliance with policies approved by the local Committee for Animal Experimentation of Marseille (CAE of Provence number 14), France (2-091009).
We performed a second round of ARAC treatment and analyzed the presence of leukemic cells 4-day post treatment. Numbers of blasts were variable depending on the patient with an accumulation in the BM of leukemic Blast in one of the PDX. […] Thus we analyzed the % of LIC in the 2-round ARAC treated mice in comparison to untreated ones (FIG. 4A).

OCI-AML3 cells [2] = experiment: CD11b/CD11c differentiation markers by flow cytometry in OCI-AML3 with or without H1d knockdown and ATRA; type: cell-based; conditions: for proportion of the double positive CD11b/CD11c populations / CD11b expression (percentage of CD11b positive cells): ATRA 0.5 μM; for proportion of the double positive CD11b/CD11c populations: 72 h
Protocol: (A) OCI-AML cells were stably infected by a doxycycline inducible shCtrl or shH1d. Expression of the main histone H1 genes (HIST1H1B, HIST1H1C, HIST1H1D, HIST1H1E, HIST1H1F0 and HIST1HIFx) were analyzed by qPCR in shCtrl and sh #1 without (Dox−) or with 6-days-induction of doxycycline (Dox+). Data represent three independent Dox inductions. Results are normalized on HPRT and expressed in fold change (FC) between Doxycyline treated (Dox+) and non-treated conditions (Dox−). (B) Percentage of CD11b positive cells in shCtrl and sh #1 upon or not (Dox−) 6-days-induction with 2 μg/mL doxycycline (Dox+), without ATRA (wo ATRA) or with 72 hours of ATRA treatment (0.5 μM or 1 μM). (C) Percentage of CD11b-CD11c cells upon 72 h of ATRA-treatment (0.5 μM) in shCtrl and sh #1 conditions. Data represent three independent experiments. Statistical significance was estimated using Mann Whitney test * p<0.05; **p<0.005. (D) Cytological analysis of shCtrl and sh #1 clones upon or not (Dox−) 6-days-induction with doxycycline (Dox+) and after 96 h of ATRA treatment (0.5 μM). (D) May-Grunwald Giemsa coloration of shCtrl and sh #1 clones after 6-days-induction with doxycycline and 96 h hours of ATRA treatment. Black arrows are pointing cytoplasmic azurophilic granules. (E) Expression analysis of two genes associated with ATRA-induced differentiation: CYBB (Cytochrome B-245 Beta Chain) and ITGAM (Integrin Subunit Alpha M) in untreated OCI-AML3 and in ATRA-treated (1 μM) sh #1 without or with doxycycline induction. Data represent three independent experiments. Gene expression was normalized to two housekeeping genes (PGK1 and PPIA). Statistical significance was estimated using T-test (* one-tailed p value <0.05).
The OCI-AML3 cells were grown in MEMα medium supplemented with 20% fetal bovine serum, 100 U/mL penicillin and 100 U/mL streptomycin at 37° C. in humidified atmosphere containing 5% CO2. H1d knockdown was achieved using doxycylin-induced Dharmacon™SMARTvector™ short hairpin RNA (n° V3SH7669-229784413). A non-silencing sh RNA (piSMART VSC10730) was used as a control (shCtrl). Cells containing the SMARTvector™ were selected on puromycin (2 μg/mL) during one day and sorted using ARIAIII cytometer before clonal selection. Three independent cellular clones (sh #1; sh #2; sh #3) were selected. KD of H1d protein was obtained by the addition on doxycycline (2 μg/mL) during 5-7 days. All-trans-retinoic acid (ATRA; Sigma) was resuspended at 10 mM in DMSO and stored at −20° C. Intermediate dilutions were made in culture medium before adding to the cells.
Flow cytometry analyses were performed using a BD-LSRII cytometer and analyzed using BD-DIVA Version 6.1.2 software (BD Biosciences). […]
(§1) To investigate the effect of low H1d expression on AML, we performed H1d knockdown (KD) in OC1-AML3 cells, an AML cell line expressing a NPM1 mutated allele.^26 Efficiency and specificity of our KD were assessed by testing the different mRNA H1 subtypes expression by q-PCR (FIG. 2A) and by measuring H1d protein level after doxycycline induction (data not shown). Consequences of H1d KD on differentiation were evaluated by measuring CD11b and CD11c expression in OCI-AML3 after doxycycline induction. […] As OCI-AML3 can differentiate in vitro in the presence of ATRA, albeit at low efficiency,^27,28 we further analyzed the effect of H1d KD in combination with ATRA treatment. […]

OCI-AML3 cells [3] = experiment: Morphological analysis (May-Grunwald Giemsa), cells with cytoplasmic granules; type: cell-based; conditions: ATRA 0.5 μM, 96 h
Protocol: (§2) (A) OCI-AML cells were stably infected by a doxycycline inducible shCtrl or shH1d. Expression of the main histone H1 genes (HIST1H1B, HIST1H1C, HIST1H1D, HIST1H1E, HIST1H1F0 and HIST1HIFx) were analyzed by qPCR in shCtrl and sh #1 without (Dox−) or with 6-days-induction of doxycycline (Dox+). Data represent three independent Dox inductions. Results are normalized on HPRT and expressed in fold change (FC) between Doxycyline treated (Dox+) and non-treated conditions (Dox−). (B) Percentage of CD11b positive cells in shCtrl and sh #1 upon or not (Dox−) 6-days-induction with 2 μg/mL doxycycline (Dox+), without ATRA (wo ATRA) or with 72 hours of ATRA treatment (0.5 μM or 1 μM). […]
Cytospins were prepared by centrifugation in […] PBS at a speed of 500 rpm for 5 min using Superfrost slides. […] 100 cells were counted in duplicate for each condition and examined for cellular morphology using an structured light ApoTome™ microscope (Zeiss, Munich, Germany) equipped with a 63× 1.4 plan ApoChromat objective and an Axiocam™ MRc5 camera.
To investigate the effect of low H1d expression on AML, we performed H1d knockdown (KD) in OC1-AML3 cells, an AML cell line expressing a NPM1 mutated allele.^26 Efficiency and specificity of our KD were assessed by testing the different mRNA H1 subtypes expression by q-PCR (FIG. 2A) and by measuring H1d protein level after doxycycline induction (data not shown). […]

OCI-AML3 cells [4] = experiment: qPCR expression of ATRA-induced genes CYBB and ITGAM; type: cell-based; conditions: ATRA 1 μM, H1d KD versus no doxycycline induction
Protocol: as §2, §1

Compound	Percentage of leukemic initiating cells (LIC) in BM ([1]; H3K27me3HIST1high PDX)	Percentage of leukemic initiating cells (LIC) in BM ([1]; H3K27me3HIST1low PDX)	Response to chemotherapy (progression of leukemia, hCD45+ cells) ([1]; first round, one week treatment, all PDX independently of H3K27me3HIST1 status)	proportion of the double positive CD11b/CD11c populations (OCI-AML3 cells [2]; H1d KD cells) [%]	proportion of the double positive CD11b/CD11c populations (OCI-AML3 cells [2]; control (no H1d KD)) [%]	CD11b expression (percentage of CD11b positive cells) (OCI-AML3 cells [2]; 72 hours, with H1d KD (doxycycline-induced)) [%]	CD11b expression (percentage of CD11b positive cells) (OCI-AML3 cells [2]; 72 hours, without H1d KD (control)) [%]	CD11b expression (OCI-AML3 cells [2]; ATRA 1 μM, 72 hours, with H1d KD versus control)	proportion of cells with more than two cytoplasmic granules (OCI-AML3 cells [3]; H1d KD)	proportion of cells with more than two cytoplasmic granules (OCI-AML3 cells [3]; control (no H1d KD)) [%]	CYBB mRNA expression level (OCI-AML3 cells [4])	ITGAM mRNA expression level (OCI-AML3 cells [4])
Nc1ccn([C@@H]2O[C@H](CO)[C@@H](O)[C@@H]2O)c(=O)n1 [ARAC, cytarabine]	identical before and after treatment	increased	Response to chemotherapy was obtained in all mice									
CC1=C(/C=C/C(C)=C/C=C/C(C)=C/C(=O)O)C(C)(C)CCC1 [ATRA, all-trans retinoic acid]				42.5	29.8	41	22.6	significant increase	31.5±3.7	9.7	increased the amplitude of ATRA-induced upregulation	increased the amplitude of ATRA-induced upregulation
